Source: article PMC12430429, “Synthesis, Structure, DNA/BSA Binding, DNA Cleaving, Cytotoxic and SOD Mimetic Activities of Copper(II) Complexes Derived from Methoxybenzylamine Schiff Base Ligands” (Molecules, 2025)
Read-outs that look alike come from different tables or passages of the source.

Experiments:
[1] = test system: A549 cells; experiment: MTT cytotoxicity assay, A549; format: cell-based, human; details: 72 h
Procedure: (§1) The cytotoxicity study of the prepared copper(II) complexes was performed using the MTT assay on human cell lines—A549 (adenocarcinoma human alveolar basal epithelial cell line), HepG2 (human liver cancer cell line) and HEL (human lung fibroblast cell line, normal cells).
(§2) The cytotoxicity of the prepared copper(II) complexes in human cell lines was evaluated using the 3-(4,5-dimethylthiazol-2-yl)-2,5-diphenyltetrazolium bromide (MTT) assay following the protocol by Mosmann. Briefly, A549 (human lung epithelial cells, carcinoma), HepG2 (human liver epithelial cells, carcinoma) and HEL (human lung fibroblast cells, normal) cells were seeded in plastic 96-well plates at a density of 1.5–2 × 10^4 cells per well. […] After the treatment, the samples were washed with phosphate-buffered saline (PBS), followed by 4 h of incubation with 1 mg/mL of MTT. Subsequently, the MTT solution was removed, and the formed formazane solids were dissolved in dimethyl sulfoxide for 30 min. The photometric evaluation (at 540 nm and 690 nm) was carried out using an xMark™ Microplate Absorbance Spectrophotometer (Bio-Rad, Hercules, CA, USA) [88].
(§3) A549 (ATCC® CCL-185), HepG2 (ATCC® HB-8065) and HEL299 (ATCC® CCL-137) cells were obtained from Lambda Life (Bratislava, Slovakia). A549 cells were kept in Dulbecco’s Modified Eagle’s Medium (DMEM) supplemented with 10% fetal bovine serum (FBS) and 1% antibiotics (penicillin and streptomycin). HepG2 cells were kept in Williams medium supplemented with 10% fetal bovine serum (FBS) and 1% antibiotics (penicillin and streptomycin). HEL299 cells were kept in Minimum Essential Medium (MEM) supplemented with 10% fetal bovine serum (FBS), 1% antibiotics (penicillin and streptomycin) and 1% non-essential amino acids (NEAA). The cells were cultured in a humidified atmosphere of 5% CO2 at 37 °C. Once the cells reached approximately 80% confluence, they were harvested and subcultured after trypsin treatment.

[2] = test system: HepG2 cells; experiment: MTT cytotoxicity assay, HepG2; format: cell-based, human; details: 72 h
Procedure: as §1, §2, §3

[3] = test system: HEL cells (human lung fibroblast, normal); experiment: MTT cytotoxicity assay, HEL; format: cell-based; details: 72 h
Procedure: as §1, §2, §3

[4] = SOD mimetic activity / radical scavenging assay (INT method); format: biochemical
Procedure: The radical scavenging ability with respect to the SOD mimetic activity of the prepared complexes was determined by the INT method. This method is based on a competitive reaction with the superoxide anion radical from KO2 between the measured compound (complex) and 2-(4-Iodophenyl)-3-(4-nitrophenyl)-5-phenyl-2H-tetrazolium chloride (INT). INT reacts with the single electron of O2^− and produces blue-green formazane detected as light absorption at 500 nm. Complexes with good antiradical activity also react with O2^−, and as a result of this, less formazane is formed.
The first type of antiradical activity measurements involved the determination of inhibition percent values of electron transfer on INT at specific concentrations (Table 9). Two concentrations were selected to achieve good solubility of the complexes (4 and 1 mM for 4a and 4c, 2 and 1 mM for 4b). The complex 4b dissolved readily at a concentration of 4 mM, but the mixture was very dark, making measurements at 500 nm difficult. Therefore, a less concentrated initial solution was used (2 mM) as the higher concentration. In total, 0.5 mL of the initial solutions was used to prepare sample solutions that also contained INT and KO2 solutions and DMSO with an overall volume of 3.5 mL. The resulting concentrations were c1 = 0.572 mM, c1* = 0.286 mM and c2 = 0.143 mM, respectively. Complexes 4a and 4c once again provided high percentages at c1 (approximately 96–99%) but the activity dropped below 24% at c2, while complex 4b maintained mediocre activity at both concentrations. It seems that the concentration increase had only a small effect on the activity of 4b; something similar was also observed in the DNA cleavage study for complex 4b. The complexes were compared with the model compound cystamine, which was used as a standard for superoxide antiradical scavenging due to the presence of a free […] group, which is also present in glutathione.
To improve the comparability of SOD mimetic activity, IC50 concentrations were determined by performing a series of measurements with decreasing concentration. IC50 values were calculated from the trend function equation as the concentration with 50% inhibition of electron transfer on INT (Table 10).
The method is based on the agent 2-(4-Iodophenyl)-3-(4-nitrophenyl)-5-phenyl-2H-tetrazolium chloride (INT), able to scavenge a superoxide radical anion from KO2. The reaction produces a blue-green formazane, which is detected as light absorption at 500 nm. The radical scavengers (measured complexes) compete with INT for radicals and reduce the formation of formazane and light absorption at 500 nm. Antiradical activity was measured on a Synergy HT BioTek spectrophotometer. DMSO was used as the solvent for the complex and KO2 (saturated solution). The INT initial solution (4 M) was prepared in a sodium tetraborate buffer solution with pH adjusted to 7.1 with HCl.
For each measurement, an initial solution of the sample (0.5 mL) of a specific concentration (4–0.1 mM) was prepared in DMSO. Due to the addition of INT (0.5 mL) and KO2 (0.5 mL) solutions and additional DMSO (2 mL), the concentrations of the measured complexes decreased seven times (3.5 mL of total mixture). Each result was the average value of three parallel measurements expressed with a standard deviation (more information in the Supplementary Materials). For the determination of SOD-IC50, several measurements with decreasing sample concentration were performed. […] A linear trend function of the percentage of inhibition and negative logarithm of concentration was used to calculate the SOD-IC50 value as the concentration with 50% inhibition of INT–formazane formation. […]
Green: 5c 5 mM (S. cerevisiae 1x10^9 cells /ml + 0.5 ml 0.9% NaCl + 0.5 ml 5c + 0.1 ml Resazurin OX) measured in time
S6. SOD Mimetic A ctivity A ssay
For each measurement, an initial solution of the sample of a specific concentration was prepared […]

SMILES | IC50 [1] [µM] | IC50 [2] [µM] | IC50 [3] [µM] | IC50 ([4]; 50% inhibition of electron transfer on INT, read-out: SOD-IC50) [µM] | IC50 ([4]; INT method, read-out: concentration of 50% inhibition (SOD-IC50), given as range) [µM] | Activity at c1 (%), inhibition of radical transfer to INT ([4]; c1 = 0.572 mM) [%] | Activity at c2 (%), inhibition of radical transfer to INT ([4]; c2 = 0.143 mM) [%]
N.N.[Cl][Pt][Cl] [cisplatin, reference compound] | 26.2 ± 4.1 | 16 ± 3.4 | 68.4 ± 0.3 |  |  |  | 
NCCSSCCN [cystamine, reference compound] |  |  |  | 1700 ± 100 | > 1000 | 22.1 ± 1.8 | 2.0 ± 0.0
